Test results taken from ChEMBL document CHEMBL5390284, “Shikimate-Derived Meroterpenoids from the Ascidian-Derived Fungus Amphichorda felina SYSU-MS7908 and Their Anti-Glioma Activity” (J Nat Prod, 2023).
Active and inactive are the calls of the source. No cut-off for these calls is given here.

What was measured:
U-87 MG [1] = assay: Antiproliferative activity against human U-87 MG cells assessed as inhibition of cell growth incubated for 48 hrs by MTT assay; format: functional, cell-based, U-87MG ATCC
T98G [2] = assay: Antiproliferative activity against human T98G cells assessed as inhibition of cell growth incubated for 48 hrs by MTT assay; format: functional, cell-based
U-251 [3] = assay: Antiproliferative activity against human U-251 cells assessed as inhibition of cell growth incubated for 48 hrs by MTT assay; format: functional, cell-based; conditions: U-251, 48 h
U-87 MG [4] = assay: Induction of apoptosis in human U-87 MG cells assessed as early apoptotic cells at 450 uM incubated for 48 hrs by Annexin V-FITC/PI staining based flow cytometry analysis (reference value: 1.1 +/- 0.6 %); format: functional, U-87MG ATCC
U-87 MG [5] = assay: Induction of apoptosis in human U-87 MG cells assessed as late apoptotic cells at 450 uM incubated for 48 hrs by Annexin V-FITC/PI staining based flow cytometry analysis (reference value: 11 +/- 1%); format: functional, U-87MG ATCC
U-87 MG [6] = assay: Induction of apoptosis in human U-87 MG cells assessed as total apoptotic cells at 450 uM incubated for 48 hrs by Annexin V-FITC/PI staining based flow cytometry analysis (reference value: 16 +/- 1%); format: functional, U-87MG ATCC
U-251 [7] = assay: Induction of apoptosis in human U-251 cells assessed as early apoptotic cells at 450 uM incubated for 48 hrs by Annexin V-FITC/PI staining based flow cytometry analysis (reference value: 1.5 +/- 0.4 %); format: functional
U-251 [8] = assay: Induction of apoptosis in human U-251 cells assessed as late apoptotic cells at 450 uM incubated for 48 hrs by Annexin V-FITC/PI staining based flow cytometry analysis (reference value: 1.3 +/- 0.6%); format: functional
U-251 [9] = assay: Induction of apoptosis in human U-251 cells assessed as total apoptotic cells at 450 uM incubated for 48 hrs by Annexin V-FITC/PI staining based flow cytometry analysis (reference value: 2.8 +/- 0.3%); format: functional
T98G [10] = assay: Induction of apoptosis in human T98G cells assessed as early apoptotic cells at 450 uM incubated for 48 hrs by Annexin V-FITC/PI staining based flow cytometry analysis (reference value: 2.7 +/- 0.5 %); format: functional
T98G [11] = assay: Induction of apoptosis in human T98G cells assessed as late apoptotic cells at 450 uM incubated for 48 hrs by Annexin V-FITC/PI staining based flow cytometry analysis (reference value: 3.7 +/- 0.3 %); format: functional
T98G [12] = assay: Induction of apoptosis in human T98G cells assessed as total apoptotic cells at 450 uM incubated for 48 hrs by Annexin V-FITC/PI staining based flow cytometry analysis (reference value: 6.4 +/- 0.8 %); format: functional
U-87 MG [13] = assay: Antiproliferative activity against human U-87 MG cells assessed as inhibition of cell growth at 100 uM incubated for 48 hrs by MTT assay; format: functional
U-251 [14] = assay: Antiproliferative activity against human U-251 cells assessed as inhibition of cell growth at 100 uM incubated for 48 hrs by MTT assay; format: functional
T98G [15] = assay: Antiproliferative activity against human T98G cells assessed as inhibition of cell growth at 100 uM incubated for 48 hrs by MTT assay; format: functional, cell-based
U-87 MG [16] = assay: Induction of apoptosis in human U-87 MG cells assessed as early apoptotic cells at 5 uM incubated for 48 hrs by Annexin V-FITC/PI staining based flow cytometry analysis (reference value: 1.1 +/- 0.6 %); format: functional, U-87MG ATCC
U-87 MG [17] = assay: Inhibition of cell migration in human U-87 MG cells incubated for 48 hrs by inverted optical microscope based wound healing assay; format: functional; conditions: U-87MG ATCC
U-251 [18] = assay: Inhibition of cell migration in human U-251 cells incubated for 48 hrs by inverted optical microscope based wound healing assay; format: functional
T98G [19] = assay: Inhibition of cell migration in human T98G cells incubated for 48 hrs by inverted optical microscope based wound healing assay; format: functional
U-87 MG [20] = assay: Inhibition of cell invasion in human U-87 MG cells at 5 to 10 uM incubated for 48 hrs by crystal violet staining based fluorescent microscope analysis; format: functional; conditions: U-87MG ATCC, dose 5-10 µM
U-251 [21] = assay: Inhibition of cell invasion in human U-251 cells at 5 to 10 uM incubated for 48 hrs by crystal violet staining based fluorescent microscope analysis; format: functional; conditions: dose 5-10 µM
T98G [22] = assay: Inhibition of cell invasion in human T98G cells at 5 to 10 uM incubated for 48 hrs by crystal violet staining based fluorescent microscope analysis; format: functional; conditions: dose 5-10 µM
U-87 MG [23] = assay: Induction of apoptosis in human U-87 MG cells assessed as early apoptotic cells at 10 uM incubated for 48 hrs by Annexin V-FITC/PI staining based flow cytometry analysis (reference value: 1.1 +/- 0.6 %); format: functional, U-87MG ATCC
U-87 MG [24] = assay: Induction of apoptosis in human U-87 MG cells assessed as early apoptotic cells at 2 uM incubated for 48 hrs by Annexin V-FITC/PI staining based flow cytometry analysis (reference value: 1.1 +/- 0.6 %); format: functional, U-87MG ATCC
U-87 MG [25] = assay: Induction of apoptosis in human U-87 MG cells assessed as late apoptotic cells at 10 uM incubated for 48 hrs by Annexin V-FITC/PI staining based flow cytometry analysis (reference value: 11 +/- 1%); format: functional, U-87MG ATCC
U-87 MG [26] = assay: Induction of apoptosis in human U-87 MG cells assessed as late apoptotic cells at 5 uM incubated for 48 hrs by Annexin V-FITC/PI staining based flow cytometry analysis (reference value: 11 +/- 1%); format: functional, U-87MG ATCC
U-87 MG [27] = assay: Induction of apoptosis in human U-87 MG cells assessed as late apoptotic cells at 2 uM incubated for 48 hrs by Annexin V-FITC/PI staining based flow cytometry analysis (reference value: 11 +/- 1%); format: functional, U-87MG ATCC
U-251 [28] = assay: Induction of apoptosis in human U-251 cells assessed as early apoptotic cells at 10 uM incubated for 48 hrs by Annexin V-FITC/PI staining based flow cytometry analysis (reference value: 1.5 +/- 0.4 %); format: functional
U-87 MG [29] = assay: Induction of apoptosis in human U-87 MG cells assessed as total apoptotic cells at 10 uM incubated for 48 hrs by Annexin V-FITC/PI staining based flow cytometry analysis (reference value: 16 +/- 1%); format: functional, U-87MG ATCC
U-87 MG [30] = assay: Induction of apoptosis in human U-87 MG cells assessed as total apoptotic cells at 5 uM incubated for 48 hrs by Annexin V-FITC/PI staining based flow cytometry analysis (reference value: 16 +/- 1%); format: functional, U-87MG ATCC
U-87 MG [31] = assay: Induction of apoptosis in human U-87 MG cells assessed as total apoptotic cells at 2 uM incubated for 48 hrs by Annexin V-FITC/PI staining based flow cytometry analysis (reference value: 16 +/- 1%); format: functional, U-87MG ATCC
U-251 [32] = assay: Induction of apoptosis in human U-251 cells assessed as early apoptotic cells at 5 uM incubated for 48 hrs by Annexin V-FITC/PI staining based flow cytometry analysis (reference value: 1.5 +/- 0.4 %); format: functional
U-251 [33] = assay: Induction of apoptosis in human U-251 cells assessed as early apoptotic cells at 2 uM incubated for 48 hrs by Annexin V-FITC/PI staining based flow cytometry analysis (reference value: 1.5 +/- 0.4 %); format: functional
U-251 [34] = assay: Induction of apoptosis in human U-251 cells assessed as late apoptotic cells at 10 uM incubated for 48 hrs by Annexin V-FITC/PI staining based flow cytometry analysis (reference value: 1.3 +/- 0.6%); format: functional
U-251 [35] = assay: Induction of apoptosis in human U-251 cells assessed as late apoptotic cells at 5 uM incubated for 48 hrs by Annexin V-FITC/PI staining based flow cytometry analysis (reference value: 1.3 +/- 0.6%); format: functional
U-251 [36] = assay: Induction of apoptosis in human U-251 cells assessed as late apoptotic cells at 2 uM incubated for 48 hrs by Annexin V-FITC/PI staining based flow cytometry analysis (reference value: 1.3 +/- 0.6%); format: functional
U-251 [37] = assay: Induction of apoptosis in human U-251 cells assessed as total apoptotic cells at 10 uM incubated for 48 hrs by Annexin V-FITC/PI staining based flow cytometry analysis (reference value: 2.8 +/- 0.3%); format: functional
U-251 [38] = assay: Induction of apoptosis in human U-251 cells assessed as total apoptotic cells at 5 uM incubated for 48 hrs by Annexin V-FITC/PI staining based flow cytometry analysis (reference value: 2.8 +/- 0.3%); format: functional
U-251 [39] = assay: Induction of apoptosis in human U-251 cells assessed as total apoptotic cells at 2 uM incubated for 48 hrs by Annexin V-FITC/PI staining based flow cytometry analysis (reference value: 2.8 +/- 0.3%); format: functional
T98G [40] = assay: Induction of apoptosis in human T98G cells assessed as early apoptotic cells at 10 uM incubated for 48 hrs by Annexin V-FITC/PI staining based flow cytometry analysis (reference value: 2.7 +/- 0.5 %); format: functional
T98G [41] = assay: Induction of apoptosis in human T98G cells assessed as early apoptotic cells at 5 uM incubated for 48 hrs by Annexin V-FITC/PI staining based flow cytometry analysis (reference value: 2.7 +/- 0.5 %); format: functional
T98G [42] = assay: Induction of apoptosis in human T98G cells assessed as early apoptotic cells at 2 uM incubated for 48 hrs by Annexin V-FITC/PI staining based flow cytometry analysis (reference value: 2.7 +/- 0.5 %); format: functional
T98G [43] = assay: Induction of apoptosis in human T98G cells assessed as late apoptotic cells at 10 uM incubated for 48 hrs by Annexin V-FITC/PI staining based flow cytometry analysis (reference value: 3.7 +/- 0.3 %); format: functional
T98G [44] = assay: Induction of apoptosis in human T98G cells assessed as late apoptotic cells at 5 uM incubated for 48 hrs by Annexin V-FITC/PI staining based flow cytometry analysis (reference value: 3.7 +/- 0.3 %); format: functional
T98G [45] = assay: Induction of apoptosis in human T98G cells assessed as late apoptotic cells at 2 uM incubated for 48 hrs by Annexin V-FITC/PI staining based flow cytometry analysis (reference value: 3.7 +/- 0.3 %); format: functional
T98G [46] = assay: Induction of apoptosis in human T98G cells assessed as total apoptotic cells at 10 uM incubated for 48 hrs by Annexin V-FITC/PI staining based flow cytometry analysis (reference value: 6.4 +/- 0.8 %); format: functional
T98G [47] = assay: Induction of apoptosis in human T98G cells assessed as total apoptotic cells at 5 uM incubated for 48 hrs by Annexin V-FITC/PI staining based flow cytometry analysis (reference value: 6.4 +/- 0.8 %); format: functional
T98G [48] = assay: Induction of apoptosis in human T98G cells assessed as total apoptotic cells at 2 uM incubated for 48 hrs by Annexin V-FITC/PI staining based flow cytometry analysis (reference value: 6.4 +/- 0.8 %); format: functional

## Cn1nnc2c(C(N)=O)ncn2c1=O [TEMOZOLOMIDE]
U-87 MG [1]
  IC50: 203 µM
T98G [2]
  IC50: 151 µM
U-251 [3]
  IC50: 189 µM
U-87 MG [4]
  Activity: 4.2%
U-87 MG [5]
  Activity: 11%
U-87 MG [6]
  Activity: 15%
U-251 [7]
  Activity: 3.7%
U-251 [8]
  Activity: 4.6%
U-251 [9]
  Activity: 8.3%
T98G [10]
  Activity: 7.5%
T98G [11]
  Activity: 9.9%
T98G [12]
  Activity: 18%

## CC1(C)CC(=O)C2=C(O1)C(=O)[C@@]1(O)C[C@@H](O)C(C)(C)O[C@H]1[C@@H]2O
U-87 MG [13]; U-87MG ATCC
  Activity: inactive
U-251 [14]
  Activity: inactive
T98G [15]
  Activity: inactive

## CC1(C)CC(=O)c2cc3c(c(Cl)c2O1)C[C@@H](O)C(C)(C)O3
U-87 MG [13]; U-87MG ATCC
  Activity: inactive
U-251 [14]
  Activity: inactive
T98G [15]
  Activity: inactive

## C=C(C)C#C[C@]12O[C@H]1[C@@H]1OC(C)(C)[C@H](OC(C)=O)C[C@@]13O[C@H]3C2=O
U-87 MG [16]
  Activity: 16%
U-87 MG [13]
  Activity: >50%
U-251 [14]
  Activity: >50%
U-87 MG [1]
  IC50: 6.8 µM
T98G [2]
  IC50: 13 µM
U-251 [3]
  IC50: 20 µM
U-87 MG [17]
  inhibition: Dose-Dependent Effect
U-251 [18]
  inhibition: Dose-Dependent Effect
T98G [19]
  inhibition: Dose-Dependent Effect
U-87 MG [20]
  inhibition: Active
U-251 [21]
  inhibition: Active
T98G [22]
  inhibition: Active
U-87 MG [23]
  Activity: 17%
U-87 MG [24]
  Activity: 3.6%
U-87 MG [25]
  Activity: 67%
U-87 MG [26]
  Activity: 14%
U-87 MG [27]
  Activity: 18%
U-251 [28]
  Activity: 5%
U-87 MG [29]
  Activity: 84%
U-87 MG [30]
  Activity: 30%
U-87 MG [31]
  Activity: 22%
U-251 [32]
  Activity: 3.1%
U-251 [33]
  Activity: 1.2%
U-251 [34]
  Activity: 5.4%
U-251 [35]
  Activity: 6%
U-251 [36]
  Activity: 2%
U-251 [37]
  Activity: 10%
U-251 [38]
  Activity: 9%
U-251 [39]
  Activity: 3.2%
T98G [40]
  Activity: 4.8%
T98G [41]
  Activity: 2.6%
T98G [42]
  Activity: 1.5%
T98G [43]
  Activity: 6.5%
T98G [44]
  Activity: 5.1%
T98G [45]
  Activity: 4.1%
T98G [46]
  Activity: 11%
T98G [47]
  Activity: 7.7%
T98G [48]
  Activity: 5.6%
